Test results from patent publication US20230002359A1, “PESTICIDALLY ACTIVE FUSED BICYCLIC HETEROAROMATIC COMPOUNDS” (priority 2019, published 2023).
Read-outs that look alike come from different tables or passages of the source.

How the values were obtained:
Assay type in all cases: in vivo
[1] = test system: Chilo suppressalis (Striped Rice Stemborer); assay: Example B3: Chilo suppressalis (striped rice stemborer), artificial diet, L2 larvae; conditions: 144 h, read-out: control in at least one of the three categories (mortality, anti-feedant effect, or growth inhibition)
Experimental: 24-well microtiter plates with artificial diet were treated with aqueous test solutions prepared from 10′000 ppm DMSO stock solutions by pipetting. After drying, the plates were infested with L2 larvae (6-8 per well). The samples were assessed for mortality, anti-feeding effect, and growth inhibition in comparison to untreated samples 6 days after infestation. Control of Chilo suppressalis by a test sample is given when at least one of the categories mortality, anti-feedant effect, and growth inhibition is higher than the untreated sample.

[2] = test system: Diabrotica Balteata (Corn Root Worm); assay: Example B1: Diabrotica balteata (corn root worm), maize sprouts sprayed, L2 larvae; conditions: 96 h, application rate of 200 ppm, 4 days after infestation, L2 larvae, read-out: control in at least one of the two categories (mortality or growth inhibition)
Experimental: Maize sprouts placed onto an agar layer in 24-well microtiter plates were treated with aqueous test solutions prepared from 10′000 ppm DMSO stock solutions by spraying. After drying, the plates were infested with L2 larvae (6 to 10 per well). The samples were assessed for mortality and growth inhibition in comparison to untreated samples 4 days after infestation.

[3] = test system: Plutella xylostella (Diamond Back Moth); assay: Example B4: Plutella xylostella (diamond back moth), artificial diet, eggs, 24-well; conditions: 192 h, read-out: control in at least one of the two categories (mortality or growth inhibition)
Experimental: 24-well microtiter plates with artificial diet were treated with aqueous test solutions prepared from 10′000 ppm DMSO stock solutions by pipetting. After drying, Plutella eggs were pipetted through a plastic stencil onto a gel blotting paper and the plate was closed with it. The samples were assessed for mortality and growth inhibition in comparison to untreated samples 8 days after infestation.

[4] = application rate of 200 ppm, 6 days after infestation, L2 larvae
[5] = application rate of 200 ppm, 8 days after infestation, eggs

Compound	percent control (mortality, anti-feedant effect or growth inhibition) at 200 ppm [1, 4] [%]	percent control (mortality or growth inhibition) at 200 ppm [2] [%]	percent control (mortality or growth inhibition) at 200 ppm [3, 5] [%]	percent control (mortality, anti-feedant effect or growth inhibition) at 200 ppm [1] [%]	percent control (mortality or growth inhibition) at 200 ppm [3] [%]
CC(Nc1nc(Cl)nc2c(Cl)cc(C(F)(F)F)cc12)c1ncnn1-c1ncccn1 (stereo not shown) [P.48, 2,8-dichloro-N-[1-(2-pyrimidin-2-yl-1,2,4-triazol-3-yl)ethyl]-6-(trifluoromethyl)quinazolin-4-amine]	≥ 80	–	–	–	–
CC(Nc1nc(Cl)nc2c(Br)cc(C(F)(F)F)cc12)c1ncnn1-c1ncccn1 (stereo not shown) [P.51, 8-bromo-2-chloro-N-[1-(2-pyrimidin-2-yl-1,2,4-triazol-3-yl)ethyl]-6-(trifluoromethyl)quinazolin-4-amine]	≥ 80	–	–	–	–
CC(c1nccnc1-c1ccc(C#N)cn1)N(CC1CC1)c1ncnc2c(Cl)cc(C(F)(F)F)cc12 (stereo not shown) [P.72, 6-[3-[1-[[8-chloro-6-(trifluoromethyl)quinazolin-4-yl]-(cyclopropylmethyl)amino]ethyl]pyrazin-2-yl]pyridine-3-carbonitrile]	≥ 80	≥ 80	≥ 80	–	–
CC(c1nccnc1-c1ccc(C#N)cn1)N(CC1CC1)c1ncnc2c(Br)cc(C(F)(F)F)cc12 (stereo not shown) [P.73, 6-[3-[1-[[8-bromo-6-(trifluoromethyl)quinazolin-4-yl]-(cyclopropylmethyl)amino]ethyl]pyrazin-2-yl]pyridine-3-carbonitrile]	≥ 80	≥ 80	≥ 80	–	–
CC(c1nccnc1-n1nccn1)N(CC1CC1)c1ncnc2c(Cl)cc(C(F)(F)F)cc12 (stereo not shown) [P.76, 8-chloro-N-(cyclopropylmethyl)-N-[1-[3-(triazol-2-yl)pyrazin-2-yl]ethyl]-6-(trifluoromethyl)quinazolin-4-amine]	≥ 80	≥ 80	≥ 80	–	–
CC(c1nccnc1-n1nccn1)N(CC1CC1)c1ncnc2c(C(F)(F)F)cc(Cl)cc12 (stereo not shown) [P.77, 6-chloro-N-(cyclopropylmethyl)-N-[1-[3-(triazol-2-yl)pyrazin-2-yl]ethyl]-8-(trifluoromethyl)quinazolin-4-amine]	≥ 80	≥ 80	≥ 80	–	–
CC(c1nccnc1-c1ncccn1)N(CC1CC1)c1ncnc2c(C(F)(F)F)cc(Br)cc12 (stereo not shown) [P.80, 6-bromo-N-(cyclopropylmethyl)-N-[1-(3-pyrimidin-2-ylpyrazin-2-yl)ethyl]-8-(trifluoromethyl)quinazolin-4-amine]	≥ 80	≥ 80	≥ 80	–	–
CC(c1nccnc1-c1ncccn1)N(CC1CC1)c1ncnc2c(Cl)cc(C(F)(F)F)cc12 (stereo not shown) [P.81, 8-chloro-N-(cyclopropylmethyl)-N-[1-(3-pyrimidin-2-ylpyrazin-2-yl)ethyl]-6-(trifluoromethyl)quinazolin-4-amine]	≥ 80	≥ 80	≥ 80	–	–
CC(Nc1ccnc2c(C(F)(F)F)cc(C(F)(F)F)cc12)c1nccnc1-c1ncccn1 (stereo not shown) [P.85, N-[1-(3-pyrimidin-2-ylpyrazin-2-yl)ethyl]-6,8-bis(trifluoromethyl)quino-lin-4-amine]	≥ 80	≥ 80	≥ 80	–	–
CC(Nc1ncnc2c(C(F)(F)F)cc(C(F)(F)F)cc12)c1ncnn1-c1ncc(Br)cn1 (stereo not shown) [P.92, N-[1-[2-(5-bromopyrimidin-2-yl)-1,2,4-triazol-3-yl]ethyl]-6,8-bis(trifluoromethyl)quina-zolin-4-amine]	≥ 80	≥ 80	≥ 80	–	–
CC(Nc1ncnc2c(Br)cc(Cl)cc12)c1ncnn1-c1ccc(C#N)cn1 (stereo not shown) [P.158, 6-[5-[1-[(8-bromo-6-chloro-quinazolin-4-yl)amino]ethyl]-1,2,4-triazol-1-yl]pyridine-3-carbonitrile]	≥ 80	–	≥ 80	–	–
COC(=O)N(c1ncnc2c(C(F)(F)F)cc(C(F)(F)F)cc12)C(C)c1ncnn1-c1ccc(C#N)cn1 (stereo not shown) [P.167, methyl N-[6,8-bis(trifluoromethyl)quina-zolin-4-yl]-N-[1-[2-(5-cyano-2-pyridyl)-1,2,4-triazol-3-yl]ethyl]carbamate]	–	–	–	≥ 80	≥ 80
C[C@@H](c1ncnn1-c1ccc(C#N)cn1)N(C)c1ncnc2c(C(F)(F)F)cc(C(=O)C3CC3)cc12 [P.170, 6-[5-[(1S)-1-[[6-(cyclopropanecarbonyl)-8-(trifluoromethyl)quinazolin-4-yl]-methyl-amino]ethyl]-1,2,4-triazol-1-yl]pyridine-3-carbonitrile]	≥ 80	–	≥ 80	–	–
CC(c1nccnc1-n1nccn1)N(C)c1ncnc2c(Br)cc(OC(F)(F)F)cc12 (stereo not shown) [P.179, 8-bromo-N-methyl-N-[1-[3-(triazol-2-yl)pyrazin-2-yl]ethyl]-6-(trifluoromethoxy)quinazo-lin-4-amine]	≥ 80	≥ 80	≥ 80	–	–
CC(c1nccnc1-n1nccn1)N(C)c1ncnc2c(OC(F)F)cc(Br)cc12 (stereo not shown) [P.180, 6-bromo-8-(difluoromethoxy)-N-methyl-N-[1-[3-(triazol-2-yl)pyrazin-2-yl]ethyl]quinazolin-4-amine]	≥ 80	≥ 80	≥ 80	–	–
C[C@@H](c1ncnn1-c1ncccn1)N(C)c1c(Cl)cnc2c(C(F)(F)F)cc(C(F)(F)F)cc12 [P.181, 3-chloro-N-methyl-N-[(1S)-1-(2-pyrimidin-2-yl-1,2,4-triazol-3-yl)ethyl]-6,8-bis(trifluoromethyl)quinolin-4-amine]	–	≥ 80	≥ 80	–	–
CC(Nc1ncnc2c(Br)cc(C(F)(F)F)cc12)c1ncnn1-c1ccc(F)cn1 (stereo not shown) [P.186, 8-bromo-N-[1-[2-(5-fluoro-2-pyridyl)-1,2,4-triazol-3-yl]ethyl]-6-(trifluoromethyl)quinazolin-4-amine]	≥ 80	≥ 80	≥ 80	–	–
CC(Nc1ncnc2c(C(F)(F)F)cc(C(F)(F)F)cc12)c1ncnn1-c1ccc(OC(F)F)cn1 (stereo not shown) [P.193, N-[1-[2-[5-(difluoromethoxy)-2-pyridyl]-1,2,4-triazol-3-yl]ethyl]-6,8-bis(trifluoromethyl)quina-zolin-4-amine]	≥ 80	≥ 80	≥ 80	–	–
CC(c1nccnc1-c1ccc(Br)cn1)N(C)c1ncnc2c(C(F)(F)F)cc(Br)cc12 (stereo not shown) [P.196, 6-bromo-N-[1-[3-(5-bromo-2-pyridyl)pyrazin-2-yl]ethyl]-N-methyl-8-(trifluoromethyl)quinazolin-4-amine]	–	≥ 80	–	–	–
CC(Nc1ncnc2c(C(F)(F)F)cc(Br)cc12)c1nccnc1-c1ccc(Br)cn1 (stereo not shown) [P.198, 6-bromo-N-[1-[3-(5-bromo-2-pyridyl)pyrazin-2-yl]ethyl]-8-(trifluoromethyl)quinazolin-4-amine]	≥ 80	–	≥ 80	–	–
CC(Nc1nccc2c(C(F)(F)F)cc(C(F)(F)F)cc12)c1ncnn1-c1ccc(C#N)cn1 (stereo not shown) [P.210, 6-[5-[1-[[5,7-bis(trifluoromethyl)-1-isoquinolyl]amino]ethyl]-1,2,4-triazol-1-yl]pyridine-3-carbonitrile]	–	≥ 80	≥ 80	–	–
CC(Nc1ncnc2c(C(F)(F)F)cc(C(F)(F)F)cc12)c1ncnn1-c1ccc(F)cn1 (stereo not shown) [P.233, N-[1-[2-(5-fluoro-2-pyridyl)-1,2,4-triazol-3-yl]ethyl]-6,8-bis(trifluoromethyl)quina-zolin-4-amine]	–	–	≥ 80	–	–
CC(Nc1ncnc2c(Cl)cc(C(F)(F)F)cc12)c1ncnn1-c1ccc(Br)cn1 (stereo not shown) [P.267, N-[1-[2-(5-bromo-2-pyridyl)-1,2,4-triazol-3-yl]ethyl]-8-chloro-6-(trifluoromethyl)quinazolin-4-amine]	≥ 80	–	–	–	–
CC(Nc1ncnc2c(C(F)(F)F)cc(C(F)(F)F)cc12)c1ncnn1-c1ccc(Br)cn1 (stereo not shown) [P.268, N-[1-[2-(5-bromo-2-pyridyl)-1,2,4-triazol-3-yl]ethyl]-6,8-bis(trifluoromethyl)quina-zolin-4-amine]	–	≥ 80	≥ 80	–	–
